# Legend:
# D-amino-acid oxidase = D-amino-acid oxidase (Homo sapiens, UniProt P14920); test: Inhibition of recombinant human DAAO assessed as oxidative deamination of D-serine in presence of molecular oxygen and FAD after 20 mins
# [1] = Metabolic stability in mouse liver microsomes assessed as compound remaining after 60 mins by LC-MS/MS analysis in presence of UDPGA; format: ADME; settings: for Stability: microsomes, 1 h
# Mus musculus [2] = test: In-vivo inhibition of DAAO in CD-1 mouse assessed as increase in D-serine AUC (0 to 6 hrs) at 30 mg/kg, po relative to control; format: functional
# Mus musculus [3] = test: In-vivo inhibition of DAAO in CD-1 mouse assessed as plasma clearance of D-serine at 30 mg/kg, po upto 3 hrs; format: organism-based
# Mus musculus [4] = species: Mus musculus; settings: CD-1
# [5] = Tmax in CD-1 mouse plasma by HPLC-MS analysis; format: ADME, organism-based
# [6] = Plasma protein binding in CD-1 mouse at 30 mg/kg, po by ultrafiltration technique; format: ADME, organism-based; settings: read-out: PPB (converted)
# Mus musculus [7] = test: AUC (0 to 6 hrs) in CD-1 mouse plasma at 30 mg/kg, po by HPLC-MS analysis; format: ADME, organism-based; design: time < 6 hr, dose 30 mg/kg, route oral; settings: in vivo
# Mus musculus [8] = test: In-vivo inhibition of DAAO in CD-1 mouse assessed as plasma clearance of D-serine at 30 mg/kg, po after 3 hrs; format: organism-based
# [9] = Metabolic stability in mouse liver microsomes assessed as compound remaining after 60 mins by LC-MS/MS analysis in presence of NADPH; format: ADME; settings: for Stability: microsomes, 1 h
# [10] = liver microsomes, read-out: Stability
# Chain of D-amino-acid oxidase (P14920 whole entry): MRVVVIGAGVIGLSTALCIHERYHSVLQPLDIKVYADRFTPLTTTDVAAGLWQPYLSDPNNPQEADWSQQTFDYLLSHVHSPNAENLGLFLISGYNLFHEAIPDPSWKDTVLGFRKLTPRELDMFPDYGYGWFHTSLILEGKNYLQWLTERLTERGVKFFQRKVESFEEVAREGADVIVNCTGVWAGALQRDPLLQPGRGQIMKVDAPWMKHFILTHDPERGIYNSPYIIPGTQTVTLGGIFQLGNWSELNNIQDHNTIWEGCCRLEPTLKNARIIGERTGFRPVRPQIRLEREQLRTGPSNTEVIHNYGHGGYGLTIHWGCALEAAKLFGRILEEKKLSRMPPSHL
IC50 (D-amino-acid oxidase) [µM],Compound,other results
40,O=c1[nH]nc(SCCc2ccccc2)nc1O,
0.06,O=c1[nH]nc(CCc2ccccc2)nc1O,Stability [1]: 98%; fold change (FC) (Mus musculus [2]): 1.7; inhibition (INH) (Mus musculus [3]): Active; AUC (Mus musculus [4]): 74200 ng·h/mL; Tmax [5]: 30 min; fraction unbound [6]: 0.26; AUC (Mus musculus [7]): 8070 ng·h/mL; inhibition (INH) (Mus musculus [8]): Not Active; Stability [9]: 79%
0.09,O=c1[nH]nc(SCc2ccc(-c3ccccc3)cc2)nc1O,
0.6,O=c1[nH]nc(SCC2CCCCC2)nc1O,
0.3,CC(C)(C)c1ccc(CSc2n[nH]c(=O)c(O)n2)cc1,
0.07,O=c1[nH]nc(Cc2ccccc2)nc1O,
0.7,O=c1[nH]nc(SCc2cccc(-c3ccccc3)c2)nc1O,
4,O=c1[nH]nc(CCCc2ccccc2)nc1O,
,O=c1[nH]nc(SCc2ccc3cc(F)ccc3c2)nc1O,Stability [1]: 95%; Stability [9]: 91%
0.05,O=c1[nH]nc(SCc2ccc(I)cc2)nc1O,
0.05,O=c1[nH]nc(SCc2ccc(Cl)c(Cl)c2)nc1O,
0.2,O=c1[nH]nc(SCc2noc3ccccc23)nc1O,
,O=c1[nH]c(=O)n(Cc2cccc3ccccc23)nc1O,"remaining at 1 h [1, 10]: > 99%; remaining at 1 h [9, 10]: > 99%"
0.03,O=c1[nH]nc(SCc2ccc(Cl)cc2)nc1O,
0.1,O=c1[nH]nc(SCc2ccccc2)nc1O,

# From ChEMBL document CHEMBL3784922, “D-Amino acid oxidase inhibitors based on the 5-hydroxy-1,2,4-triazin-6(1H)-one scaffold” (Bioorg Med Chem Lett, 2016)
